Results as given in the NIST ThermoML archive (doi:10.1016/j.jct.2017.03.034).

Assay: molar heat capacity at constant pressure
Details: Liquid, Large sample (1 g) DSC

CCCCCCCCCCCCCC [tetradecane]
molar heat capacity at constant pressure [J/K/mol]
Details | 120 kPa | 10120 kPa
323.15 K | 449.55 | 447.76
328.15 K | 452.72 | 451.13
333.15 K | 456.09 | 454.51
338.15 K | 459.47 | 457.88
343.15 K | 463.04 | 461.25
348.15 K | 466.61 | 464.82
353.15 K | 470.38 | 468.2
358.15 K | 474.15 | 471.97
363.15 K | 477.72 | 475.54
368.15 K | 481.49 | 478.91
373.15 K | 485.26 | 483.07
378.15 K | 489.03 | 486.45
383.15 K | 492.8 | 489.82
388.15 K | 496.76 | 493.19
393.15 K | 500.14 | 497.16
398.15 K | 504.5 | 500.73
403.15 K | 508.27 | 503.71
408.15 K | 512.44 | 508.47
413.15 K | 515.81 | 511.64
418.15 K | 519.58 | 515.41
423.15 K | 523.35 | 518.78
428.15 K | 527.12 | 522.16
433.15 K | 530.89 | 525.93
438.15 K | 535.25 | 529.3
443.15 K | 539.81 | 533.47
448.15 K | 543.58 | 537.63
453.15 K | 547.95 | 541.6
458.15 K | 554.1 | 545.77
463.15 K | 559.65 | 550.33
468.15 K | – | 553.9
473.15 K | – | 558.07
478.15 K | – | 562.83
483.15 K | – | 566.79

CCCCCCCC [octane]
molar heat capacity at constant pressure [J/K/mol]
Details | 100 kPa | 10130 kPa
323.15 K | 263.3 | 260.9
328.15 K | 265.7 | 263.18
333.15 K | 267.98 | 265.58
338.15 K | 270.38 | 267.75
343.15 K | 272.66 | 270.04
348.15 K | 275.18 | 272.32
353.15 K | 277.58 | 274.49
358.15 K | 280.09 | 277
363.15 K | 282.6 | 279.17
368.15 K | 285.11 | 281.57
373.15 K | 287.86 | 283.97
378.15 K | 290.37 | 286.49
383.15 K | 293.45 | 288.88
388.15 K | – | 290.94
393.15 K | – | 292.88
398.15 K | – | 295.97

CCCCCCCCCCCCCCCC [hexadecane]
molar heat capacity at constant pressure [J/K/mol]
Details | 130 kPa | 10090 kPa
323.15 K | 513.57 | 512.21
328.15 K | 517.19 | 515.83
333.15 K | 520.81 | 519.46
338.15 K | 524.66 | 523.31
343.15 K | 528.51 | 526.48
348.15 K | 532.82 | 530.1
353.15 K | 536.44 | 534.4
358.15 K | 540.74 | 538.48
363.15 K | 544.59 | 542.1
368.15 K | 548.67 | 546.4
373.15 K | 553.2 | 550.7
378.15 K | 557.27 | 554.55
383.15 K | 561.57 | 558.86
388.15 K | 565.65 | 563.16
393.15 K | 569.73 | 567.24
398.15 K | 574.03 | 571.31
403.15 K | 578.56 | 575.61
408.15 K | 583.09 | 579.92
413.15 K | 586.94 | 584.44
418.15 K | 591.46 | 588.97
423.15 K | 595.77 | 593.05
428.15 K | 599.62 | 596.45
433.15 K | 603.92 | 600.3
438.15 K | 608.67 | 604.6
443.15 K | 613.2 | 609.35
448.15 K | 617.28 | 613.66
453.15 K | 622.26 | 617.05
458.15 K | – | 621.35
463.15 K | – | 625.43
468.15 K | – | 630.19
473.15 K | – | 634.94

CCCCCCCCCCCC [dodecane]
molar heat capacity at constant pressure [J/K/mol]
Details | 100 kPa | 10180 kPa
323.15 K | 386.32 | 385.13
328.15 K | 389.56 | 388.02
333.15 K | 392.79 | 391.26
338.15 K | 395.86 | 394.33
343.15 K | 399.09 | 397.39
348.15 K | 402.33 | 400.46
353.15 K | 405.57 | 403.52
358.15 K | 408.8 | 406.93
363.15 K | 412.04 | 410
368.15 K | 415.28 | 413.23
373.15 K | 418.85 | 416.13
378.15 K | 422.09 | 419.36
383.15 K | 425.5 | 422.6
388.15 K | 428.73 | 426.01
393.15 K | 432.31 | 429.07
398.15 K | 435.38 | 433.16
403.15 K | 438.78 | 435.89
408.15 K | 442.53 | 438.78
413.15 K | 445.77 | 441.68
418.15 K | 449.34 | 444.06
423.15 K | 452.92 | 447.64
428.15 K | 456.5 | 450.88
433.15 K | 460.59 | 454.28
438.15 K | 465.35 | 458.2
443.15 K | – | 462.12
448.15 K | – | 465.7
453.15 K | – | 469.95

CCCCCC [hexane]
molar heat capacity at constant pressure [J/K/mol]
Details | 323.15 K | 328.15 K | 333.15 K | 338.15 K | 343.15 K | 348.15 K | 353.15 K | 358.15 K | 363.15 K | 368.15 K
140 kPa | 203.63 | 205.7 | 207.85 | – | – | – | – | – | – | –
10090 kPa | 200.62 | 202.43 | 204.49 | 206.13 | 208.11 | 210.1 | 211.91 | 214.15 | 216.04 | 218.37

CCCCCCCCCC [decane]
molar heat capacity at constant pressure [J/K/mol]
Details | 120 kPa | 10170 kPa
323.15 K | 326.25 | 322.98
328.15 K | 328.24 | 325.68
333.15 K | 330.52 | 328.39
338.15 K | 333.22 | 330.95
343.15 K | 336.21 | 333.65
348.15 K | 339.06 | 336.35
353.15 K | 341.9 | 339.06
358.15 K | 344.46 | 342.05
363.15 K | 346.88 | 344.61
368.15 K | 349.73 | 347.31
373.15 K | 352.72 | 350.3
378.15 K | 355.56 | 353
383.15 K | 358.55 | 355.7
388.15 K | 361.68 | 358.41
393.15 K | 364.81 | 361.4
398.15 K | 367.8 | 364.24
403.15 K | 371.21 | 367.09
408.15 K | – | 370.07
413.15 K | – | 372.78
418.15 K | – | 375.77
423.15 K | – | 379.32
428.15 K | – | 382.6
